Data: patent US20260070922A1, “PYRAZOLE AND IMIDAZOLE DERIVATIVES AS DUAL OREXIN AND KAPPA-OPIOID RECEPTORS MODULATORS COMPOSITION, METHODS FOR TREATING NEUROLOGICAL AND PSYCHIATRIC DISORDERS” (HAGER BIOSCIENCES, LLC, priority 2022, published 2026)

Tests used:
[1] = molecular target: T1, human k-opioid receptor (kOR) (Homo sapiens, UniProt P41145); experiment: Human k-opioid (KOP) receptor (agonist radioligand [3H]U-69593) binding assay, transfected RBL cell membranes; conditions: for inhibition at 1 µM: read-out: KOR % Inh. @ 1 uM; for IC50: first value of IC50/Ki cell; for Ki: second value of IC50/Ki cell
T1 construct: expressed in transfected cells; host or cells: RBL cells (membrane homogenates)
T1 sequence (P41145 whole entry): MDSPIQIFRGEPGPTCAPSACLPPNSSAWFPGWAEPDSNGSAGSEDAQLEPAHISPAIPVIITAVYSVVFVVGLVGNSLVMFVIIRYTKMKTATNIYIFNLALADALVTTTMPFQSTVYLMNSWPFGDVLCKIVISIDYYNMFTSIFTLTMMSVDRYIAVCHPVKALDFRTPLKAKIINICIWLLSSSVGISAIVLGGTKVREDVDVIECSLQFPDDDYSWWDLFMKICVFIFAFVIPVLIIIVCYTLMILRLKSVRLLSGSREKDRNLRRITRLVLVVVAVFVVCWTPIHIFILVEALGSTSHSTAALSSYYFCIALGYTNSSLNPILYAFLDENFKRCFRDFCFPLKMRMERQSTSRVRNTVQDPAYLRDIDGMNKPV
Protocol: Human k-Opioid (KOP) Receptor (Agonist Radioligand) Binding Assay
Purpose: Evaluation of the affinity of compounds for the human k-opioid receptor in transfected RBL cells determined in a radioligand binding assay.
Experimental protocol: Cell membrane homogenates (about 80 μg protein) are incubated for 60 min at 22° C. with 0.5 nM [3H]U-69593 in the absence or presence of the test compound in a buffer containing 50 mM Tris-HCl (pH 7.4), 10 mM MgCl2 and 1 mM EDTA. Nonspecific binding is determined in the presence of 10 μM naloxone. Following incubation, the samples are filtered rapidly under vacuum through glass fiber filters ([…], Packard) presoaked with 0.3% PEI and rinsed several times with ice-cold 50 mM Tris-HCl using a 96-sample cell harvester (Unifilter, Packard). The filters are dried then counted for radioactivity in a scintillation counter (Topcount, Packard) using a scintillation cocktail (Microscint 0, Packard). The results are expressed as a percent inhibition of the control radioligand specific binding. The standard reference compound is U-50488, which is tested in each experiment at several concentrations to obtain a competition curve from which its IC50 is calculated.

[2] = molecular target: T2, human orexin-2 receptor (OX2R) (Homo sapiens, UniProt O43614); experiment: In vitro orexin antagonism assay: intracellular calcium measurement (FLIPR), orexin-A 3 nM as agonist; assay type: cell-based; conditions: for inhibition at 1 µM: read-out: OX2R, % Inh. @ 1 uM; for IC50: first value of IC50/Kb cell; for Kb: second value of IC50/Kb cell
T2 construct: expressed in transfected cells; host or cells: CHO cells (G418 selection)
T2 sequence (O43614 1-444): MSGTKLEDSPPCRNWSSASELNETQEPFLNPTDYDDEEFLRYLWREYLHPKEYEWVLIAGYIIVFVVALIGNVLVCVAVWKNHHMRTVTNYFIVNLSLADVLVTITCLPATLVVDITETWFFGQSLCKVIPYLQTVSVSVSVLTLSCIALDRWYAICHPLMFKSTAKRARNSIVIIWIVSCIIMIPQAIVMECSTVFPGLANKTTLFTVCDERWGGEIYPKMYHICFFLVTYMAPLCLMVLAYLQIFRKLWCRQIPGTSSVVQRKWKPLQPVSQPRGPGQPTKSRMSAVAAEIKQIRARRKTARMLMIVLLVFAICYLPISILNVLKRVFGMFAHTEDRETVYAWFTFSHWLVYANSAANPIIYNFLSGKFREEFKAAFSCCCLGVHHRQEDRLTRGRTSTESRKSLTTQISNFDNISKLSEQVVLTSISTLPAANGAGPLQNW
In short: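 CHO cells stably expressing human OX1R or OX2R, loaded with fluo-4 AM (3 μM, 5 mM probenecid) for 50 min at 37 °C, then 30 min at RT. Antagonist preincubated 120 min before 3 nM orexin-A; FLIPR fluorescence peak height vs vehicle gives IC50, possibly normalized to on-plate reference; geometric mean of repeats.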

[3] = molecular target: T3, Orexin type 1 (OX1R) receptor (Homo sapiens, UniProt O43613); experiment: as above; assay type: cell-based; conditions: for IC50: first value of IC50/Kb cell; for inhibition at 1 µM: read-out: OX1R, % Inh. @ 1 uM; for Kb: second value of IC50/Kb cell
T3 construct: expressed in transfected cells; host or cells: CHO cells (G418 selection)
T3 sequence (O43613 1-425): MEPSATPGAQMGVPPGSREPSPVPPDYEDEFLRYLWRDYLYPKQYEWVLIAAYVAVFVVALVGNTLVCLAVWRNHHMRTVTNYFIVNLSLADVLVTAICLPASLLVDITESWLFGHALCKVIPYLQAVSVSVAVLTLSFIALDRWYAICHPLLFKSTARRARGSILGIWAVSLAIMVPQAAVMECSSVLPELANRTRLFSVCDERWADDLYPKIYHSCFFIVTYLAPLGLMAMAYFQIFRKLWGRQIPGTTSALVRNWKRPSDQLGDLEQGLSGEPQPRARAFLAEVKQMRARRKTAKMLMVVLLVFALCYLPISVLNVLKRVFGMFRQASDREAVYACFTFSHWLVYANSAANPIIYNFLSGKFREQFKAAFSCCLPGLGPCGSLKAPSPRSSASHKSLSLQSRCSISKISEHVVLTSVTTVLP
In short: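 CHO cells expressing the human orexin receptor were loaded with 3 μM fluo-4 AM plus 5 mM probenecid, then exposed to antagonist for 120 min before 3 nM orexin-A (final) was added on a FLIPR.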

| inhibition at 1 µM [1] [%] | inhibition at 1 µM [2] [%] | IC50 [3] [nM] | inhibition at 1 µM [3] [%] | Kb [3] [nM] | IC50 [2] [nM] | Kb [2] [nM] | Compound | KOR % Inh. @ 1 uM [1] [%] | IC50 [1] [nM] | Ki [1] [nM] | OX2R, % Inh. @ 1 uM [2] [%] | OX1R, % Inh. @ 1 uM [3] [%] |
| --- | --- | --- | --- | --- | --- | --- | --- | --- | --- | --- | --- | --- |
| 0 | 39 | 40 | 91 | 9 |  |  | O=C(c1nc2ccccn2c1-c1ccccn1)N1CCC[C@H]1Cn1cc(-c2ccccn2)cn1 [Example 181] |  |  |  |  |  |
| 9 | 52 | 5 | 99 | 1 | 490 | 85 | O=C(c1nn2cccnc2c1-c1ccccc1)N1CCC[C@H]1Cn1ccc(-c2ccccn2)n1 [Example 137] |  |  |  |  |  |
| 0 | 62 | 9 | 100 | 2 | 490 | 84 | O=C(c1c(-c2ncccn2)nn2ccccc12)N1CCC[C@H]1Cn1ccc(-c2ccccn2)n1 [Example 138] |  |  |  |  |  |
| 16 | 11 | 340 | 97 | 72 |  |  | C[C@@]1(Cn2ccc(-c3ccccn3)n2)CCCN1C(=O)c1nn2ccccc2c1-c1ccccc1 [Example 150] |  |  |  |  |  |
| 26 | 74 | 9 | 99 | 1 | 3 | 0.5 | O=C(c1nn2cccnc2c1-c1ccccc1)N1CCC[C@H]1Cn1ccc(-c2ccccc2)n1 [Example 136] |  |  |  |  |  |
| 27 | 91 | 4 | 100 | 1 | 68 | 12 | O=C(c1c(-c2ncccn2)nn2ccccc12)N1CCC[C@H]1Cn1ccc(-c2ccccc2)n1 [Example 131] |  |  |  |  |  |
| 0 | 44 | 12 | 100 | 3 |  |  | O=C(c1nn2c(c1-c1ccccc1)COCC2)N1CCC[C@H]1Cn1ccc(-c2ccccn2)n1 [Example 134] |  |  |  |  |  |
| 21 | 79 | 14 | 100 | 3 | 43 | 8 | O=C(c1nn2ccccc2c1-c1ccccc1)N1CCC[C@H]1Cn1ccc(-c2ccc(F)cn2)n1 [Example 111] |  |  |  |  |  |
| 0 | 56 | 5 | 100 | 0.9 |  |  | O=C(c1nn2ccccc2c1-c1ccccn1)N1CCC[C@H]1Cn1ccc(-c2ccccn2)n1 [Example 174] |  |  |  |  |  |
| 3 | 65 | 21 | 86 | 4 |  |  | O=C(c1nn2cccnc2c1-c1ccccn1)N1CCC[C@H]1Cn1cc(-c2ccccn2)cn1 [Example 186] |  |  |  |  |  |
| 2 | 25 | 43 | 100 | 9 |  |  | C[C@@]1(COc2ccc(C(F)(F)F)cn2)CCCN1C(=O)c1c(-c2ccccn2)nn2ccccc12 [Example 147] |  |  |  |  |  |
| 33 | 74 | 220 | 85 | 10 | 46 | 10 | O=C(c1c(-c2ccccc2F)nn2ccccc12)N1CCC[C@H]1Cn1cc(-c2ccc(F)cn2)cn1 [Example 82] |  |  |  |  |  |

| Compound | inhibition at 1 µM [1] [%] | inhibition at 1 µM [2] [%] | IC50 [3] [nM] | inhibition at 1 µM [3] [%] | Kb [3] [nM] | IC50 [2] [nM] | Kb [2] [nM] | KOR % Inh. @ 1 uM [1] [%] | IC50 [1] [nM] | Ki [1] [nM] | OX2R, % Inh. @ 1 uM [2] [%] | OX1R, % Inh. @ 1 uM [3] [%] |
| --- | --- | --- | --- | --- | --- | --- | --- | --- | --- | --- | --- | --- |
| O=C(c1c(-c2ccccc2F)nc2ccccn12)N1CCC[C@H]1Cn1ccc(-c2ccc(F)cc2)n1 [Example 62] |  |  | 6 |  | 1 | 26 | 4 | 79 | 200 | 110 | 85.23 | 96.96 |
| O=C(c1c(-c2ccccc2)nn2ccccc12)N1CCC[C@H]1Cn1ccc(-c2ccc(C(F)(F)F)cc2)n1 [Example 60] |  |  | 106 |  | 22 |  |  | 63 | 390 | 210 | 37 | 78 |
